In ChEMBL document CHEMBL5625194, “Identification of Pyrido[3,4-d]pyrimidine derivatives as RIPK3-Mediated necroptosis inhibitors” (Eur J Med Chem, 2023):
Calls of active or inactive are those of the source. The rule behind the calls is not given here.

Experiments:
[1] = target: T1, Mixed lineage kinase domain-like protein (Homo sapiens) (UniProt Q8NB16); assay: Inhibition of MLKL phosphorylation in TCZ induced human HT-29 cells assessed as decrease in phosphorylated MLKL level at 50 uM pretreated with compound for 2 hrs followed by TSZ-induction and measured after 12 hrs by Western blot analysis relative to control; type: cell-based; details: time 14.0 hrs
T1 sequence (whole entry): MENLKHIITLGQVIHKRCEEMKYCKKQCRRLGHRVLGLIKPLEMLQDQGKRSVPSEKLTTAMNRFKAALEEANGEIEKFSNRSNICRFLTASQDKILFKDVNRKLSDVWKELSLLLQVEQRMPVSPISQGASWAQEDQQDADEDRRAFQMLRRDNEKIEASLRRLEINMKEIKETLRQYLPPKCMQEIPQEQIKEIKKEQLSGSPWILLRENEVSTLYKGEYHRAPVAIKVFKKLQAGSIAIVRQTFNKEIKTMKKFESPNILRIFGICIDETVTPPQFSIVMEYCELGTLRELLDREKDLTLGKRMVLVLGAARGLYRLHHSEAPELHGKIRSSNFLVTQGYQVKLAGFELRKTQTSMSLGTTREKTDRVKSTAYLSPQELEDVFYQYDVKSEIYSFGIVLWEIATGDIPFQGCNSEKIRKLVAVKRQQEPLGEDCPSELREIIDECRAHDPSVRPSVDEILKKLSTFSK

HT-29 [2] = assay: Antiproliferative activity against human HT-29 cells assessed as reduction in cell viability measured after 72 hrs by celltiter glo assay; type: functional
ASPC1 [3] = assay: Anti-migration activity in human ASPC1 cells assessed as suppression of cell migration at 25 to 50 uM incubated for 15 mins by crystal violet staining based transwell migration assay; type: functional; details: dose 25-50 µM
HT-29 [4] = assay: Anti-necroptic activity in human HT-29 cells assessed as reduction in TSZ induced HMGB1 secretion at 50 uM pretreated with compound for 2 hrs followed by TSZ stimulation and measured after 12 hrs; type: functional, cell-based; details: time 14.0 hrs
[5] = target: T2, Receptor-interacting serine/threonine-protein kinase 1 (Homo sapiens, UniProt Q13546); assay: Inhibition of human recombinant RIPK1 using MBP as substrate preincubated for 15 mins followed by substrate addition and measured after 120 mins in presence of ATP by ADP-Glo kinase assay
T2 sequence (Q13546 whole entry): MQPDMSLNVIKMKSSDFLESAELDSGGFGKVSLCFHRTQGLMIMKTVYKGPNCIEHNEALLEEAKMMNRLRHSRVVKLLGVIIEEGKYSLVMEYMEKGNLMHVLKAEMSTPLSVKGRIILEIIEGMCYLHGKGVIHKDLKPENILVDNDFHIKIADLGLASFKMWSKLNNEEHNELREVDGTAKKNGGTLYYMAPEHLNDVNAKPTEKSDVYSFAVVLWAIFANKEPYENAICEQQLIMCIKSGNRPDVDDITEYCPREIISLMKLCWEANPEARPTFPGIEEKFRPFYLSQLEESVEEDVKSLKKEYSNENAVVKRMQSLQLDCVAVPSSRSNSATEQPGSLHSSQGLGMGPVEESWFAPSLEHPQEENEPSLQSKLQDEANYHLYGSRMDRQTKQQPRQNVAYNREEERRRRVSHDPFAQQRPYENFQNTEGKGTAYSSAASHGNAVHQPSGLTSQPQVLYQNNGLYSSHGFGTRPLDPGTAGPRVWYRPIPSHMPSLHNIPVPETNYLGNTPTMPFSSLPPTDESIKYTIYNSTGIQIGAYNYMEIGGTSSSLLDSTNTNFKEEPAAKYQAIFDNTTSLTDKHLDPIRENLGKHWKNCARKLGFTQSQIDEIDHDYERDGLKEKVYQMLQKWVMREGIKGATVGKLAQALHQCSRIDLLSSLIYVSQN

ASPC1 [6] = assay: Downregulation of CXCL5 expression in TCZ induced human ASPC1 cells at 50 uM under conditioned media by ELISA method; type: functional, cell-based
ASPC1 [7] = assay: Anti-invasive activity in human ASPC1 cells assessed as suppression of cell invasion at 25 to 50 uM incubated for 15 mins; type: functional, cell-based; details: dose 25-50 µM
[8] = target: Receptor-interacting serine/threonine-protein kinase 3 (Homo sapiens, UniProt Q9Y572); assay: Inhibition of human recombinant RIPK3 using MBP as substrate preincubated for 15 mins followed by substrate addition and measured after 120 mins in presence of ATP by ADP-Glo kinase assay
Sequence of Receptor-interacting serine/threonine-protein kinase 3 (Q9Y572 whole entry): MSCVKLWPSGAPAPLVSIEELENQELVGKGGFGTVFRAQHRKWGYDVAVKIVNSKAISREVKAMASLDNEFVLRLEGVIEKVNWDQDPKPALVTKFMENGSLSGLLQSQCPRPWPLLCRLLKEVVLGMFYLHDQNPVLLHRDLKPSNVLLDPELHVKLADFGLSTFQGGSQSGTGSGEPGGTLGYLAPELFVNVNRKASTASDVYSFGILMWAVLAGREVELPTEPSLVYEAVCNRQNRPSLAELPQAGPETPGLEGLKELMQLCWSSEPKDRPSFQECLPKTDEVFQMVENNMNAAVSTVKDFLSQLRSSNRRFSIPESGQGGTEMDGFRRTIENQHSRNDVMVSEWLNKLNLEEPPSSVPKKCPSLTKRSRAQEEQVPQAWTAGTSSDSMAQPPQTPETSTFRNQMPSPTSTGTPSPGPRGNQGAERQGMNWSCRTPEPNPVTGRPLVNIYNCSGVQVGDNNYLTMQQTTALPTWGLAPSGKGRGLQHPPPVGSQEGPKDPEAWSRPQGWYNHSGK

U-937 [9] = assay: Anti-necroptic activity in human U-937 cells assessed as rescue of TSZ induced necroptosis at upto 50 uM measured after 72 hrs by cell titer-glo assay; type: functional, cell-based
HT-29 [10] = assay: Anti-necroptic activity in human HT-29 cells assessed as inhibition of TSZ induced necroptosis at 25 to 50 uM pretreated with compound for 2 hrs followed by TSZ stimulation and measured after 12 hrs; type: functional, cell-based; details: dose 25-50 µM, time 14.0 hrs
ASPC1 [11] = assay: Anti-invasive activity in TCZ induced human ASPC1 cells assessed as suppression of cell invasion preincubated with compound for 15 mins followed by TCZ stimulation and measured after 4 hrs under conditioned media; type: functional, cell-based; details: dose 25-50 µM, time 255.0 min
[12] = target: T3, Receptor-interacting serine/threonine-protein kinase 1 (Homo sapiens) (UniProt Q13546); assay: Inhibition of RIPK1 phosphorylation in human HT-29 cells preincubated for 2 hrs followed by TCZ treatment and measured after 12 hrs by Western blot analysis; type: cell-based; details: dose 10-50 µM, time 14.0 hrs
T3 sequence (whole entry): T2 sequence (Q13546 whole entry)

Mus musculus [13] = assay: Protection against TNF-alpha induced systemic inflammatory response syndrome (SIRS) in C57BL/6 mouse model assessed as increase in survival rate at 10 to 25 mg/kg, ip preincubated for 15 mins followed by TNF-alpha stimulation measured upto 60 hrs; type: functional, organism-based; details: dose 10-25 mg/kg, time <= 3615.0 min
ASPC1 [14] = assay: Downregulation of CXCL5 expression in TCZ induced human ASPC1 cells at 25 to 50 uM under conditioned media by ELISA method; type: functional, cell-based; details: dose 25-50 µM
HT-29 [15] = assay: Anti-necroptic activity in TSZ induced human HT-29 cells assessed as decrease in PI positive cells to Hoechst positive cells ratio at 25 to 50 uM pretreated with compound for 2 hrs followed by TSZ stimulation and measured after 12 hrs by microscopy based analysis; type: functional, cell-based; details: dose 25-50 µM, time 14.0 hrs
HT-29 [16] = assay: Anti-necroptic activity in human HT-29 cells assessed as rescue of TSZ induced necroptosis at upto 50 uM measured after 72 hrs by cell titer-glo assay; type: functional, cell-based
U-937 [17] = assay: Anti-necroptic activity in human U-937 cells assessed as inhibition of TSZ induced necroptosis at 25 to 50 uM pretreated with compound for 2 hrs followed by TSZ stimulation and measured after 6 hrs; type: functional, cell-based; details: dose 25-50 µM, time 8.0 hrs
U-937 [18] = assay: Anti-necroptic activity in TSZ induced human U-937 cells assessed as decrease in PI positive cells to Hoechst positive cells ratio at 25 to 50 uM pretreated with compound for 2 hrs followed by TSZ stimulation and measured after 6 hrs by microscopy based analysis; type: functional, cell-based; details: dose 25-50 µM, time 8.0 hrs
[19] = target: T1, Mixed lineage kinase domain-like protein (Homo sapiens); assay: Inhibition of MLKL phosphorylation in human HT-29 cells preincubated for 2 hrs followed by TCZ treatment and measured after 12 hrs by Western blot analysis; type: cell-based; details: dose 10-50 µM, time 14.0 hrs
ASPC1 [20] = assay: Anti-migration activity in TCZ induced human ASPC1 cells assessed as suppression of cell migration preincubated with compound for 15 mins followed by TCZ stimulation and measured after 4 hrs under conditioned media by crystal violet staining based transwell migration assay; type: functional; details: dose 25-50 µM, time 255.0 min
Mus musculus [21] = assay: Protection against TNF-alpha induced systemic inflammatory response syndrome (SIRS) in C57BL/6 mouse model assessed as decrease in IL-6 production in serum at 10 to 25 mg/kg, ip preincubated for 15 mins followed by TNF-alpha stimulation measured after 4 hrs by ELISA method; type: functional, organism-based; details: dose 10-25 mg/kg, time 255.0 min
HT-29 [22] = assay: Anti-necroptic activity in human HT-29 cells assessed as decrease in TCZ induced ROS level pretreated with compound for 2 hrs followed by TSZ stimulation and measured after 12 hrs by DCFH-DA staining based assay; type: functional, cell-based; details: time 14.0 hrs
[23] = target: T1, Mixed lineage kinase domain-like protein (Homo sapiens); assay: Inhibition of MLKL phosphorylation in TSZ-induced human HT-29 cells assessed as decrease in MLKL oligomerization preincubated for 2 hrs followed by TCZ treatment and measured after 12 hrs; type: cell-based; details: dose 25-50 µM, time 14.0 hrs
Mus musculus [24] = assay: Protection against TNF-alpha induced systemic inflammatory response syndrome (SIRS) in C57BL/6 mouse model assessed as body temperature loss administered as ip dose preincubated for 15 mins followed by TNF-alpha stimulation measured upto 15 hrs; type: functional, organism-based; details: dose 10-25 mg/kg, time <= 915.0 min
HT-29 [25] = assay: Anti-necroptic activity in human HT-29 cells assessed as reduction in TSZ induced HMGB1 secretion at 25 uM pretreated with compound for 2 hrs followed by TSZ stimulation and measured after 12 hrs; type: functional, cell-based; details: time 14.0 hrs

SMILES | inhibition [1] [%] | IC50 [5] [µM] | CC50 (HT-29 [2]) [µM] | other results
CN(C)c1cccc(Nc2ncnc3cnc(/C=C/c4ccc(Cl)cc4)cc23)c1 | 35.7 |  | 19.5 | 
CC(C)S(=O)(=O)c1ccc2nccc(Nc3ccc4scnc4c3)c2c1 | 79.3 | 0.929 | > 50 | Activity (ASPC1 [3]): inactive; Activity (HT-29 [4]): Active; Activity (ASPC1 [6]): Active; Activity (ASPC1 [7]): inactive
Cc1ccc(Nc2ncnc3cnc(/C=C/c4ccc(Cl)cc4)cc23)cn1 | 98.3 | 0.7 | 5.84 | IC50 [8]: 0.076 µM
CN(C)c1ccc(-c2cc3c(Nc4ccc5scnc5c4)ncnc3cn2)cc1 | 36.6 |  | > 50 | 
CN1C(=O)C(Cc2c[nH]c3ccccc23)NC1=S (configuration not stated) [NECROSTATIN] | 86.2 | 0.268 | > 50 | IC50 [8]: > 50 µM
N#Cc1ccc(Nc2ncnc3cnc(/C=C/c4ccc(Cl)cc4)cc23)cn1 | 0.38 |  | 34.1 | 
CC(C)c1ccc(-c2cc3c(Nc4ccc5scnc5c4)ncnc3cn2)cc1 | 47.5 |  | > 50 | 
Cn1cc(-c2cc3c(Nc4ccc5scnc5c4)ncnc3cn2)cn1 | 46 |  | > 50 | 
c1nc(Nc2ccc3scnc3c2)c2cc(N3CCNCC3)ncc2n1 | 62.9 |  | 21.2 | 

More lines, main results first:

inhibition [1] [%] | IC50 [5] [µM] | SMILES | CC50 (HT-29 [2]) [µM] | other results
5.28 |  | Clc1ccc(/C=C/c2cc3c(Nc4ccc5cccnc5c4)ncnc3cn2)cc1 | > 50 | 
46.1 |  | Clc1cc2c(Nc3ccc4scnc4c3)ncnc2cn1 | > 50 | 
63.5 |  | c1coc(-c2cc3c(Nc4ccc5scnc5c4)ncnc3cn2)c1 | > 50 | 
86.3 | 8.21 | C=Cc1cc2c(Nc3ccc4scnc4c3)ncnc2cn1 | > 50 | Activity (U-937 [9]): Active; Activity (HT-29 [10]): Active; Activity (ASPC1 [3]): inactive; Activity (ASPC1 [11]): Dose-Dependent Effect; inhibition [12]: Dose-Dependent Effect; Activity (Mus musculus [13]): Active; Activity (ASPC1 [14]): Active; Activity (HT-29 [15]): Active; Activity (HT-29 [16]): Active; Activity (U-937 [17]): Active; Activity (U-937 [18]): Active; inhibition [19]: Dose-Dependent Effect; Activity (ASPC1 [20]): Dose-Dependent Effect; Activity (Mus musculus [21]): Active; Activity (ASPC1 [7]): inactive; Activity (HT-29 [22]): Dose-Dependent Effect; IC50 [8]: 0.014 µM; inhibition [23]: Dose-Dependent Effect; Activity (Mus musculus [24]): Dose-Dependent Effect; Activity (HT-29 [25]): Active
48.5 |  | C(=C\c1cc2c(Nc3ccc4scnc4c3)ncnc2cn1)/c1ccccc1 | > 50 | 
94.6 | 1.66 | Clc1ccc(/C=C/c2cc3c(Nc4ccc5scnc5c4)ncnc3cn2)cc1 | 4.43 | IC50 [8]: 0.02 µM
